In patent US6737383B1, “Herbicidal oxadiazolidines” (priority 1999, dated 2004):

Tests used:
[1] = test system: wheat; assay: Test B pre/postemergence wheat; type: in vivo, Triticum aestivum
How it was run: (§1)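 Response is a visual 0-to-10 score relative to untreated plants, where 0 means no effect and 10 means complete control, taken twelve to sixteen days after application. Treatments went onto soil at planting and onto foliage of 1- to 4-leaf plants, using a surfactant-containing non-phytotoxic solvent.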

[2] = test system: corn; assay: Test B pre/postemergence corn; type: in vivo, Zea mays
How it was run: as §1

[3] = test system: purple nutsedge; assay: Test B pre/postemergence purple nutsedge; type: in vivo, Cyperus rotundus
How it was run: as §1

[4] = test system: cocklebur; assay: Test B pre/postemergence cocklebur; type: in vivo, Xanthium strumarium
How it was run: as §1

[5] = test system: bedstraw; assay: Test B pre/postemergence bedstraw; type: in vivo, Galium aparine
How it was run: as §1

[6] = test system: morningglory; assay: Test B pre/postemergence morningglory; type: in vivo, Ipomoea hederacea
How it was run: as §1

[7] = test system: sugar beet; assay: Test B pre/postemergence sugar beet; type: in vivo, Beta vulgaris
How it was run: as §1

[8] = test system: crabgrass; assay: Test B pre/postemergence crabgrass; type: in vivo, Digitaria sanguinalis
How it was run: as §1

[9] = test system: pigweed; assay: Test B pre/postemergence pigweed; type: in vivo, Amaranthus retroflexus
How it was run: as §1

[10] = test system: soybean; assay: Test B pre/postemergence soybean; type: in vivo, Glycine max
How it was run: as §1

[11] = test system: blackgrass; assay: Test B pre/postemergence blackgrass; type: in vivo, Alopecurus myosuroides
How it was run: as §1

[12] = test system: rape; assay: Test B pre/postemergence rape; type: in vivo, Brassica napus
How it was run: as §1

[13] = test system: velvetleaf; assay: Test B pre/postemergence velvetleaf; type: in vivo, Abutilon theophrasti
How it was run: as §1

[14] = test system: surinam grass; assay: Test B pre/postemergence surinam grass; type: in vivo, Brachiaria decumbens; conditions: Postemergence
How it was run: as §1

[15] = test system: wild oat; assay: Test B pre/postemergence wild oat; type: in vivo, Avena fatua
How it was run: as §1

[16] = test system: giant foxtail; assay: Test B pre/postemergence giant foxtail; type: in vivo, Setaria faberii
How it was run: as §1

[17] = Postemergence, Rate 500 g/ha, scale 0 (no effect) to 10 (complete control)
[18] = Rate 125 g/ha, Preemergence, scale 0 to 10 (0 no effect, 10 complete control)
[19] = Rate 250 g/ha, Postemergence, scale 0 to 10, 0 is no effect, 10 is complete control
[20] = Rate 500 g/ha, Preemergence, scale 0 to 10 (0 no effect, 10 complete control)
[21] = Rate 1000 g/ha, Preemergence, scale 0 to 10 (0 no effect, 10 complete control)
[22] = Postemergence, Rate 125 g/ha, scale of 0 to 10 where 0 is no effect and 10 is complete control
[23] = Postemergence, Rate 1000 g/ha, scale 0 to 10 (0 no effect, 10 complete control)
[24] = Preemergence, Rate 250 g/ha, scale 0 (no effect) to 10 (complete control)

COP(=O)(CCn1c(=O)on(C(=O)N(c2ccc(F)cc2F)C(C)C)c1=O)OC [Compound 777]
Wheat plant response rating [1, 17]: 3
Wheat plant response rating [1, 18]: 0
Wheat plant response rating [1, 19]: 2
Wheat plant response rating [1, 20]: 9
Plant response rating, Wheat [1, 21]: 9
Corn plant response rating [2, 22]: 0
Corn plant response rating [2, 17]: 0
Corn plant response rating [2, 23]: 0
Corn plant response rating [2, 24]: 0
Corn plant response rating [2, 18]: 0
Corn plant response rating [2, 19]: 0
Corn plant response rating [2, 20]: 0
Plant response rating, Corn [2, 21]: 0
Nutsedge plant response rating [3, 17]: 3
Nutsedge plant response rating [3, 23]: 3
Nutsedge plant response rating [3, 18]: 0
Nutsedge plant response rating [3, 19]: 0
Plant response rating, Nutsedge [3, 21]: 1
Cocklebur plant response rating [4, 22]: 0
Cocklebur plant response rating [4, 17]: 0
Cocklebur plant response rating [4, 23]: 0
Cocklebur plant response rating [4, 24]: 0
Cocklebur plant response rating [4, 18]: 0
Cocklebur plant response rating [4, 19]: 0
Cocklebur plant response rating [4, 20]: 0
Bedstraw plant response rating [5, 22]: 0
Bedstraw plant response rating [5, 17]: 3
Bedstraw plant response rating [5, 23]: 6
Bedstraw plant response rating [5, 18]: 0
Bedstraw plant response rating [5, 19]: 2
Bedstraw plant response rating [5, 20]: 0
Plant response rating, Bedstraw [5, 21]: 3
Morningglory plant response rating [6, 22]: 8
Morningglory plant response rating [6, 17]: 8
Morningglory plant response rating [6, 23]: 8
Morningglory plant response rating [6, 18]: 1
Morningglory plant response rating [6, 19]: 8
Morningglory plant response rating [6, 20]: 5
Plant response rating, Morningglory [6, 21]: 7
Sugarbeets plant response rating [7, 17]: 5
Sugarbeets plant response rating [7, 18]: 0
Sugarbeets plant response rating [7, 19]: 3
Sugarbeets plant response rating [7, 20]: 3
Plant response rating, Sugarbeets [7, 21]: 3
Crabgrass plant response rating [8, 22]: 4
Crabgrass plant response rating [8, 17]: 9
Crabgrass plant response rating [8, 24]: 10
Crabgrass plant response rating [8, 18]: 10
Crabgrass plant response rating [8, 19]: 7
Crabgrass plant response rating [8, 20]: 10
Plant response rating, Crabgrass [8, 21]: 10
Redroot pigweed plant response rating [9, 22]: 2
Redroot pigweed plant response rating [9, 17]: 4
Redroot pigweed plant response rating [9, 23]: 8
Redroot pigweed plant response rating [9, 18]: 2
Redroot pigweed plant response rating [9, 19]: 4
Redroot pigweed plant response rating [9, 20]: 2
Plant response rating, Redroot pigweed [9, 21]: 9
Soybean plant response rating [10, 17]: 6
Soybean plant response rating [10, 18]: 0
Soybean plant response rating [10, 19]: 3
Soybean plant response rating [10, 20]: 0
Plant response rating, Soybean [10, 21]: 0
Blackgrass plant response rating [11, 22]: 0
Blackgrass plant response rating [11, 17]: 4
Blackgrass plant response rating [11, 23]: 4
Blackgrass plant response rating [11, 24]: 10
Blackgrass plant response rating [11, 18]: 2
Blackgrass plant response rating [11, 19]: 2
Blackgrass plant response rating [11, 20]: 10
Plant response rating, Blackgrass [11, 21]: 10
Rape plant response rating [12, 22]: 0
Rape plant response rating [12, 17]: 0
Rape plant response rating [12, 23]: 0
Rape plant response rating [12, 18]: 0
Rape plant response rating [12, 19]: 0
Rape plant response rating [12, 20]: 2
Plant response rating, Rape [12, 21]: 7
Velvetleaf plant response rating [13, 17]: 5
Velvetleaf plant response rating [13, 18]: 0
Velvetleaf plant response rating [13, 19]: 3
Velvetleaf plant response rating [13, 20]: 0
Plant response rating, Velvetleaf [13, 21]: 3
B. signalgrass plant response rating ([14]; Rate 125 g/ha, scale of 0 to 10 where 0 is no effect and 10 is complete control): 2
B. signalgrass plant response rating ([14]; Rate 1000 g/ha, scale 0 to 10 (0 no effect, 10 complete control)): 8
B. signalgrass plant response rating ([14]; Rate 250 g/ha, scale 0 to 10, 0 is no effect, 10 is complete control): 2
B. signalgrass plant response rating ([14]; Rate 500 g/ha, scale 0 to 10, 0 is no effect, 10 is complete control): 3
Wild oats plant response rating [15, 17]: 3
Wild oats plant response rating [15, 18]: 3
Wild oats plant response rating [15, 19]: 2
Wild oats plant response rating [15, 20]: 9
Plant response rating, Wild oats [15, 21]: 9
Giant foxtail plant response rating [16, 22]: 8
Giant foxtail plant response rating [16, 17]: 9
Giant foxtail plant response rating [16, 23]: 9
Giant foxtail plant response rating [16, 24]: 10
Giant foxtail plant response rating [16, 18]: 10
Giant foxtail plant response rating [16, 19]: 8
Giant foxtail plant response rating [16, 20]: 10
Plant response rating, Giant foxtail [16, 21]: 10
